According to patent publication US20240124442A1, “TRICYCLIC-AMIDO-BICYCLIC PRMT5 INHIBITORS” (AMGEN INC., priority 2021, published 2024):

test system: HCT116 WT cells; assay: HCT116 WT (parent) cell line proliferation / cell viability (CellTiter-Glo, 6 days); format: cell-based; details: Homo sapiens, HCT-116, 144 h, 6 days treatment
Summary of the method: (§1)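 WT vs MTAP-null HCT116, 6 d drug, CTG readout. 1:3 × 8–9 pts (top 1/10 μM) or 1:2 × 22 pts (top 10/50 μM). IC50 by 4PL or Hill −1 fit.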

| IC50 [nM] | SMILES |
| --- | --- |
| 50000 | CN(C(=O)c1ccc2nc(N)c3c(c2c1)COC3)[C@H]1CCc2nc(C(F)(F)F)ccc21 (single isomer, unassigned) [Example 528] |
| 5590 | CN(C(=O)c1ccc2nc(N)c3c(c2c1)COC3)C1COc2nc(C(F)(F)F)ccc21 (single isomer, unassigned) [Example 529] |
| 816 | CCN(C(=O)c1ccc2nc(N)c3c(c2c1)COC3)[C@@H]1COc2cc(C(F)(F)F)ccc21 (single isomer, unassigned) [Example 533] |
| 198 | Nc1nc2ccc(C(=O)N(CC3CC3)[C@@H]3COc4cc(C(F)(F)F)ccc43)cc2c2c1COC2 (single isomer, unassigned) [Example 535] |
| 881 | C[C@H]1OCc2c1c(N)nc1ccc(C(=O)N(C)[C@@H]3COc4cc(C(F)(F)F)ccc43)cc21 (single isomer, unassigned) [Example 537] |
| 23600 | C[C@H]1OCc2c1c(N)nc1ccc(C(=O)N(C)[C@H]3COc4cc(C(F)(F)F)ccc43)cc21 (single isomer, unassigned) [Example 538] |
| 3250 | CN(C(=O)c1cc2c3c(c(N)nc2cn1)COC3)[C@@H]1COc2cc(C(F)(F)F)cc(F)c21 (single isomer, unassigned) [Example 545] |
| 30700 | CN(C(=O)c1cc2c3c(c(N)nc2cn1)COC3)[C@H]1COc2cc(C(F)(F)F)cc(F)c21 (single isomer, unassigned) [Example 546] |
| 2460 | Nc1nc2cnc(C(=O)N(C3CC3)[C@@H]3COc4cc(C(F)(F)F)ccc43)cc2c2c1COC2 (single isomer, unassigned) [Example 547] |
| 1340 | CN(C(=O)c1cc2c3c(c(N)nc2cc1F)COC3)[C@@H]1COc2cc(C#N)ccc21 (single isomer, unassigned) [Example 551] |

Second part, the compound before the results:

| SMILES | IC50 [nM] |
| --- | --- |
| CN(C(=O)c1ccc2nc(N)c3c(c2c1)COC3)[C@H]1COc2nc(C(F)(F)F)ccc21 (single isomer, unassigned) [Example 530] | 40200 |
| CN(C(=O)c1ccc2nc(N)c3c(c2c1)COC3)[C@@H]1CCc2cc(OC(F)(F)F)ccc21 (single isomer, unassigned) [Example 531] | 4860 |
| CN(C(=O)c1ccc2nc(N)c3c(c2c1)COC3)[C@H]1CCc2cc(OC(F)(F)F)ccc21 (single isomer, unassigned) [Example 532] | 6680 |
| CCN(C(=O)c1ccc2nc(N)c3c(c2c1)COC3)[C@H]1COc2cc(C(F)(F)F)ccc21 (single isomer, unassigned) [Example 534] | 23900 |
| Nc1nc2ccc(C(=O)N(CC3CC3)[C@H]3COc4cc(C(F)(F)F)ccc43)cc2c2c1COC2 (single isomer, unassigned) [Example 536] | 11700 |
| CCN(C(=O)c1ccc2nc(N)c3c(c2c1)CO[C@@H]3C)[C@@H]1COc2cc(C(F)(F)F)ccc21 (single isomer, unassigned) [Example 539] | 663 |
| CCN(C(=O)c1ccc2nc(N)c3c(c2c1)CO[C@@H]3C)[C@H]1COc2cc(C(F)(F)F)ccc21 (single isomer, unassigned) [Example 540] | 18600 |
| CN(C(=O)c1cc2c3c(c(N)nc2cn1)COC3)[C@@H]1COc2cc(C#N)ccc21 (single isomer, unassigned) [Example 541] | 3800 |
| CN(C(=O)c1cc2c3c(c(N)nc2cn1)COC3)[C@@H]1COc2cc(C(F)(F)F)ncc21 (single isomer, unassigned) [Example 542] | 46000 |
| CCN(C(=O)c1cc2c3c(c(N)nc2cn1)COC3)[C@@H]1COc2cc(C(F)(F)F)ccc21 (single isomer, unassigned) [Example 543] | 1460 |
| CCN(C(=O)c1cc2c3c(c(N)nc2cn1)COC3)[C@H]1COc2cc(C(F)(F)F)ccc21 (single isomer, unassigned) [Example 544] | 15200 |
| CN(C(=O)c1cc2c3c(c(N)nc2cn1)COC3)[C@@H]1COc2cc(Cl)c(C(F)(F)F)cc21 (single isomer, unassigned) [Example 548] | 3060 |
| CN(C(=O)c1cc2c3c(c(N)nc2cc1F)COC3)[C@@H]1COc2cc(C(F)(F)F)ccc21 (single isomer, unassigned) [Example 552] | 1220 |

test system: HCT116 MTAP null cells; assay: HCT116 MTAP null cell line proliferation / cell viability (CellTiter-Glo, 6 days); format: cell-based; details: 144 h; HCT116 MTAP null cells, 6 days treatment, CellTiter-Glo cell viability; read-out: HCT-116 MTAP null IC50
Summary of the method: as §1

| IC50 [nM] | SMILES |
| --- | --- |
| 5280 | CN(C(=O)c1ccc2nc(N)c3c(c2c1)COC3)[C@H]1CCc2nc(C(F)(F)F)ccc21 (single isomer, unassigned) [Example 528] |
| 89 | CN(C(=O)c1ccc2nc(N)c3c(c2c1)COC3)C1COc2nc(C(F)(F)F)ccc21 (single isomer, unassigned) [Example 529] |
| 17 | CCN(C(=O)c1ccc2nc(N)c3c(c2c1)COC3)[C@@H]1COc2cc(C(F)(F)F)ccc21 (single isomer, unassigned) [Example 533] |
| 7 | Nc1nc2ccc(C(=O)N(CC3CC3)[C@@H]3COc4cc(C(F)(F)F)ccc43)cc2c2c1COC2 (single isomer, unassigned) [Example 535] |
| 21 | C[C@H]1OCc2c1c(N)nc1ccc(C(=O)N(C)[C@@H]3COc4cc(C(F)(F)F)ccc43)cc21 (single isomer, unassigned) [Example 537] |
| 1840 | C[C@H]1OCc2c1c(N)nc1ccc(C(=O)N(C)[C@H]3COc4cc(C(F)(F)F)ccc43)cc21 (single isomer, unassigned) [Example 538] |
| 68 | CN(C(=O)c1cc2c3c(c(N)nc2cn1)COC3)[C@@H]1COc2cc(C(F)(F)F)cc(F)c21 (single isomer, unassigned) [Example 545] |
| 9590 | CN(C(=O)c1cc2c3c(c(N)nc2cn1)COC3)[C@H]1COc2cc(C(F)(F)F)cc(F)c21 (single isomer, unassigned) [Example 546] |
| 122 | Nc1nc2cnc(C(=O)N(C3CC3)[C@@H]3COc4cc(C(F)(F)F)ccc43)cc2c2c1COC2 (single isomer, unassigned) [Example 547] |
| 17 | CN(C(=O)c1cc2c3c(c(N)nc2cc1F)COC3)[C@@H]1COc2cc(C#N)ccc21 (single isomer, unassigned) [Example 551] |

Further lines, the compound ahead of its results:

| SMILES | IC50 [nM] |
| --- | --- |
| CN(C(=O)c1ccc2nc(N)c3c(c2c1)COC3)[C@H]1COc2nc(C(F)(F)F)ccc21 (single isomer, unassigned) [Example 530] | 2510 |
| CN(C(=O)c1ccc2nc(N)c3c(c2c1)COC3)[C@@H]1CCc2cc(OC(F)(F)F)ccc21 (single isomer, unassigned) [Example 531] | 113 |
| CN(C(=O)c1ccc2nc(N)c3c(c2c1)COC3)[C@H]1CCc2cc(OC(F)(F)F)ccc21 (single isomer, unassigned) [Example 532] | 2510 |
| CCN(C(=O)c1ccc2nc(N)c3c(c2c1)COC3)[C@H]1COc2cc(C(F)(F)F)ccc21 (single isomer, unassigned) [Example 534] | 1730 |
| Nc1nc2ccc(C(=O)N(CC3CC3)[C@H]3COc4cc(C(F)(F)F)ccc43)cc2c2c1COC2 (single isomer, unassigned) [Example 536] | 728 |
| CCN(C(=O)c1ccc2nc(N)c3c(c2c1)CO[C@@H]3C)[C@@H]1COc2cc(C(F)(F)F)ccc21 (single isomer, unassigned) [Example 539] | 15 |
| CCN(C(=O)c1ccc2nc(N)c3c(c2c1)CO[C@@H]3C)[C@H]1COc2cc(C(F)(F)F)ccc21 (single isomer, unassigned) [Example 540] | 722 |
| CN(C(=O)c1cc2c3c(c(N)nc2cn1)COC3)[C@@H]1COc2cc(C#N)ccc21 (single isomer, unassigned) [Example 541] | 77 |
| CN(C(=O)c1cc2c3c(c(N)nc2cn1)COC3)[C@@H]1COc2cc(C(F)(F)F)ncc21 (single isomer, unassigned) [Example 542] | 785 |
| CCN(C(=O)c1cc2c3c(c(N)nc2cn1)COC3)[C@@H]1COc2cc(C(F)(F)F)ccc21 (single isomer, unassigned) [Example 543] | 49 |
| CCN(C(=O)c1cc2c3c(c(N)nc2cn1)COC3)[C@H]1COc2cc(C(F)(F)F)ccc21 (single isomer, unassigned) [Example 544] | 5230 |
| CN(C(=O)c1cc2c3c(c(N)nc2cn1)COC3)[C@@H]1COc2cc(Cl)c(C(F)(F)F)cc21 (single isomer, unassigned) [Example 548] | 58 |
| CN(C(=O)c1cc2c3c(c(N)nc2cc1F)COC3)[C@@H]1COc2cc(C(F)(F)F)ccc21 (single isomer, unassigned) [Example 552] | 34 |
